According to ChEMBL document CHEMBL1201862, “PubChem BioAssay data set” (2004):
Active and inactive are the calls of the source.

Key:
[1] = HeLa cell cytotoxicity, dose response, cytotoxicity control for MgcRacGAP inhibitor project (AID 624300); type: functional
[2] = target: T1, Rac GTPase-activating protein 1 (Homo sapiens, UniProt Q9H0H5); experiment: MgcRacGAP GTPase-activating activity inhibitors, confirmation, biochemical, ADP Hunter fluorescence, primary and confirmatory (AID 624330); type: functional
T1 sequence (Q9H0H5 whole entry): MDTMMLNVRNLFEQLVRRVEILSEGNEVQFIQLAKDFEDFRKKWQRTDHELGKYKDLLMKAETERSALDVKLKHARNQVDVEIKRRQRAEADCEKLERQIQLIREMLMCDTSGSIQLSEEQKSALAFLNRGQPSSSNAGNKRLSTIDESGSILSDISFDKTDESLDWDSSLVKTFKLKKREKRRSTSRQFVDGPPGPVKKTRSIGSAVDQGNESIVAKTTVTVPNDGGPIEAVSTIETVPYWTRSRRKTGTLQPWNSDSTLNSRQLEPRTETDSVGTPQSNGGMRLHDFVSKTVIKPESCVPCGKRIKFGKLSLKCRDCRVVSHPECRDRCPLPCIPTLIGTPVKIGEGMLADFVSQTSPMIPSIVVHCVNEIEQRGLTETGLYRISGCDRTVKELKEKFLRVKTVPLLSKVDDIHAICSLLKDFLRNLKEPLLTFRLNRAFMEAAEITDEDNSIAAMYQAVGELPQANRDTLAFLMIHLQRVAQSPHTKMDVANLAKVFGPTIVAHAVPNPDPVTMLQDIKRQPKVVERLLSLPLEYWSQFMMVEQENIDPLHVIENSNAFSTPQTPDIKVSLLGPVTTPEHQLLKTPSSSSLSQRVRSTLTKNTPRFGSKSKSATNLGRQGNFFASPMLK

[3] = Counterscreen for AddAB inhibitors: absorbance-based bacterial cell-based high throughput dose response assay for inhibitors of bacterial viability. [Related pubchem assays (depositor defined):AID435030, AID449728, AID449731, AID488942, AID488955, AID488956]; type: functional
[4] = target: T2, Sentrin-specific protease 7 (Homo sapiens, UniProt Q9BQF6); type: functional;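 further: Luminescence-based dose-response confirmation of ultra-high-throughput screening hits, measuring inhibition of SENP7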
T2 sequence (Q9BQF6 whole entry): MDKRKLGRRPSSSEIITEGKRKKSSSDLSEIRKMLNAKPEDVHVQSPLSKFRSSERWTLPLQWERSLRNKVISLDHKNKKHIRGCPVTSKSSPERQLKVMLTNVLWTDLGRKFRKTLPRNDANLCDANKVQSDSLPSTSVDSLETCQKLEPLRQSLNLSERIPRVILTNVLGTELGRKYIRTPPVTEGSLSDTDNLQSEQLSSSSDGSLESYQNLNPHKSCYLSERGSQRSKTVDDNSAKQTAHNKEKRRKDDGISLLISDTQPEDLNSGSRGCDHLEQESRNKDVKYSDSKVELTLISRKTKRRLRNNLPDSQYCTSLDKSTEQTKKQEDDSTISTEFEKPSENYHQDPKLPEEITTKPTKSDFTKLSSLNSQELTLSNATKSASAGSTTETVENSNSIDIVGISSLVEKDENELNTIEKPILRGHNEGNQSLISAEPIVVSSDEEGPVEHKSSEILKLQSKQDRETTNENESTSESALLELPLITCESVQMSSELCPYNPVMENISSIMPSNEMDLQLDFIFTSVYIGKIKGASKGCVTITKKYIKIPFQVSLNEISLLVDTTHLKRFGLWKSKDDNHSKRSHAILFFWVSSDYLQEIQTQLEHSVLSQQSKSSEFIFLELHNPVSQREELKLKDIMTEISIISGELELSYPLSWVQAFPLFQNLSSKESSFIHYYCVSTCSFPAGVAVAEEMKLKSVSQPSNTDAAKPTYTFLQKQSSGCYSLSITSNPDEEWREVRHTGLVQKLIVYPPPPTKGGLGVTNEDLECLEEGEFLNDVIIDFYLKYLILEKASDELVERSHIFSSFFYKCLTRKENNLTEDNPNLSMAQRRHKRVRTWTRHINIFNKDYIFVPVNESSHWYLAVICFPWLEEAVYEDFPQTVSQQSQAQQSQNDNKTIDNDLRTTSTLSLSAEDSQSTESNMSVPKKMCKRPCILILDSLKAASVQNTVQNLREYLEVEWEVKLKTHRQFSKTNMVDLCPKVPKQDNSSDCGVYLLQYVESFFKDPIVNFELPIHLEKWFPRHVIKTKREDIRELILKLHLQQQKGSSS

[5] = target: Dual specificity tyrosine-phosphorylation-regulated kinase 1A (Rattus norvegicus, UniProt Q63470); type: biochemical, Homo sapiens
[6] = target: T3, Sentrin-specific protease 6 (Homo sapiens, UniProt Q9GZR1); type: functional;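 further: Luminescence-based dose-response confirmatory assay of SENP6 inhibition, following up an ultra-high-throughput screen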
T3 sequence (Q9GZR1 whole entry): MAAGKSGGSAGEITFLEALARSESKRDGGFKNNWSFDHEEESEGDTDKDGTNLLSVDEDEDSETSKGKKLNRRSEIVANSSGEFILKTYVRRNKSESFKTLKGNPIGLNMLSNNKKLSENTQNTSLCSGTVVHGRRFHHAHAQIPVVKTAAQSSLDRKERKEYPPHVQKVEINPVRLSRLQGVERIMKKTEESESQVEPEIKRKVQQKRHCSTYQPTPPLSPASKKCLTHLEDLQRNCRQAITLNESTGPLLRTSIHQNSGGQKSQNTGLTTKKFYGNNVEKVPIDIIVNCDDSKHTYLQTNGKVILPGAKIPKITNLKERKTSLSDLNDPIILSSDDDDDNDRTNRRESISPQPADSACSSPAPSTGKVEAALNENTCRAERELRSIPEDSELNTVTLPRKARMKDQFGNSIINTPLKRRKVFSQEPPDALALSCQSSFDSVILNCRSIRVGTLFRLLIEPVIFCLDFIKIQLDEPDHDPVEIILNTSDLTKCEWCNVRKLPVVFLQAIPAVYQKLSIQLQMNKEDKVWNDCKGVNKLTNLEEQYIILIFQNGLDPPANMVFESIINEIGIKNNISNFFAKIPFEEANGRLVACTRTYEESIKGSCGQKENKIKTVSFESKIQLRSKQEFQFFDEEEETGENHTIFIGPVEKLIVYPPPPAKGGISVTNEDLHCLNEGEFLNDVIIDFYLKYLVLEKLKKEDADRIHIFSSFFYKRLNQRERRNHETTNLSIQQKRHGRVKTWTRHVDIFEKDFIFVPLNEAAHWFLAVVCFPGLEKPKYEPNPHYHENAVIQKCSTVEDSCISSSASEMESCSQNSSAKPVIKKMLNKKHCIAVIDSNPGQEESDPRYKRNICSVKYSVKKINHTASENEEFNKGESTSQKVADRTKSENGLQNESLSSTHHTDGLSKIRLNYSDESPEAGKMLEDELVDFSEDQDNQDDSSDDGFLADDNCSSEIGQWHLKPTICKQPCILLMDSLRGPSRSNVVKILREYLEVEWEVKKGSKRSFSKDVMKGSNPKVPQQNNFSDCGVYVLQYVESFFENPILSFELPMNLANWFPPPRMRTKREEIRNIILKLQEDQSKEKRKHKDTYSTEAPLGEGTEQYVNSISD

| IC50 [4] | AC50 [5] | IC50 [6] | Structure (SMILES) | CC50 [1] | IC50 [2] | IC50 [3] |
| --- | --- | --- | --- | --- | --- | --- |
|  |  |  | O=[N+]([O-])c1ccc(N/N=C/c2ccc[nH]2)cc1 | 100 µM (active) | 44.5 µM (active) | > 119 µM (inactive) |
| 13.8 µM (active) | 28.1 µM (active) | 6.06 µM (active) | CC(=O)N(/N=C1\Sc2ccccc2C1=O)c1cccc(C)c1 |  |  |  |
